{"source": "paper PMC3669315", "about": "“Dissociations in the Effects of β2-Adrenergic Receptor Agonists on cAMP Formation and Superoxide Production in Human Neutrophils: Support for the Concept of Functional Selectivity” (PLoS ONE, 2013)", "key": {"[1]": {"molecular_target": "T1, β2-adrenergic receptor (β2AR) on human neutrophils (Homo sapiens, UniProt P07550)", "T1 construct": "gene ADRB2; native full-length receptor in intact neutrophils isolated from venous blood or buffy coat of healthy volunteers", "T1 sequence (P07550 whole entry)": "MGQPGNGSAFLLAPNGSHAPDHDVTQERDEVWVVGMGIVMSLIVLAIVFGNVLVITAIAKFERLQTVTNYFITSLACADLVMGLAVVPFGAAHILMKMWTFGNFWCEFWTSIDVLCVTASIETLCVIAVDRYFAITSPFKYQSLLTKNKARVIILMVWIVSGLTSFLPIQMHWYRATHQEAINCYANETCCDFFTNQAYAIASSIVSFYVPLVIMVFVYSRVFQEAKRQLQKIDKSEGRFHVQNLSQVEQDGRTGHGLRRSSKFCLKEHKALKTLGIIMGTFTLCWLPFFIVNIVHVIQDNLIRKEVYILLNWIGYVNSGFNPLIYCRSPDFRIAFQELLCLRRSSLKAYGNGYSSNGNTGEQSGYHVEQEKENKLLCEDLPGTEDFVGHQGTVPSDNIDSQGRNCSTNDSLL", "assay": "cAMP accumulation, HPLC-MS/MS", "type": "cell-based", "conditions": "read-out: cAMP assay (β2AR on neutrophil granulocytes) / pEC50 ± S.E.M. (EC50 in μM) (converted), intact neutrophils, […] IBMX, […] °C"}, "[2]": {"molecular_target": "T1, β2-adrenergic receptor (β2AR) on human neutrophils", "assay": "inhibition of fMLP-stimulated superoxide production, ferricytochrome c reduction", "type": "cell-based", "conditions": "agonist potency, downstream functional read-out, intact neutrophils, […] fMLP, cytochalasin B, read-out: O2 ^•- assay (β2AR on neutrophil granulocytes) / pIC50 ± S.E.M. (IC50 in μM) (converted)", "from_the_text": "inhibition of fMLP-stimulated superoxide production, ferricytochrome c reduction on β2-adrenergic receptor (β2AR) on human neutrophils"}}, "note": "Where two headings read alike, the source gives them in different places."}
{"smiles": "CC(C)NCC(O)c1ccc(Cl)c(Cl)c1", "note": "(racemic) [DCI, (±)-dichlorisoproterenol]", "values": [{"measurement": "EC50", "setting": "[1]; agonist mode, table prints pEC50 <[…] as ( […]), text: no agonistic activity up to […]", "result": "> 100", "unit": "µM"}, {"measurement": "IC50", "setting": "[2]", "result": 39.8, "unit": "µM"}]}
{"smiles": "CC(CCc1ccc(O)cc1)NCCc1ccc(O)c(O)c1", "note": "(racemic) [DOB, (±)-dobutamine]", "values": [{"measurement": "EC50", "setting": "[1]; partial agonist", "result": 13.8, "unit": "µM"}]}
